{
  "source": "paper PMC9408991",
  "about": "“Antitumor Effects of a New Retinoate of the Fungal Cytotoxin Illudin M in Brain Tumor Models” (International Journal of Molecular Sciences, 2022)",
  "key": {"[1]": {"system": "non-neural cancer cell lines", "test": "MTT assay, summary over non-neural cancer cell lines", "format": "cell-based, human", "details": "with the exception of MCF-7^+Topo", "protocol": "Non-GBM cells (5 × 10^4 cells/mL, 100 µL/well) were grown in 96-well plates for 24 h. Then, they were treated with various concentrations of the test compounds or vehicle (DMSO, or EtOH) for 72 h at 37 °C. After the addition of 12.5 µL of a 0.5% MTT solution in PBS, the cells were incubated for 3 h at 37 °C so that the water-soluble MTT could be converted to formazan crystals. Then, the plates were centrifuged (300× g, 5 min, 4 °C), the medium withdrawn, and the formazan dissolved in 25 µL of DMSO containing 10% sodium dodecylsulfate (SDS) and 0.6% acetic acid for at least 2 h at 37 °C. In the case of the HL60 cells, after 2 h, the precipitate of formazan crystals was redissolved in a 10% solution of SDS in DMSO containing 0.6% acetic acid."}, "[2]": {"test": "Reactivity test with glutathione (enone absorption)", "format": "physicochemical", "details": "200 µM compound, glutathione in PBS, 2 h, rt", "protocol": "In a cell-free activity assay, the reaction of 1 and 2 with glutathione was measured by the decreasing absorption at 340 nm (enone group). Then, 2 µL of the substances (10 mM in DMSO) was mixed with 98 µL glutathione solution ([…] in PBS) in a 96-well plate. The absorption was measured at 340 nm every 30 s for 2 h at rt (Tecan F200). All experiments were performed at least four times.\nFigure 1 Time-resolved measurement of the absorption at 340 nm (enone group) of 200 µM 1, 2 or solvent (DMSO) mixed with 6.5 mM glutathione in phosphate-buffered saline (PBS). Data are means ± SD of at least four independent measurements every 30 s."}, "[3]": {"test": "Stability in cell medium (DMEM) by HPLC", "format": "physicochemical", "details": "for Detected compound 2 in medium / Detected free 1 in the sample of 2 / Detected free retinoic acid in the sample of 2: sample of 2 in DMEM", "protocol": "The stability of compound 2 in medium (DMEM) was investigated for the indicated times (Table S1). For the preparation of the calibration samples, stock solutions of the test compounds (1 mg /mL) in MeCN were initially made. The sample was diluted to 0.2 mg/mL in a mixture of MeCN/H2O (4:1), whereof 20 µL were taken and injected into the column. For HPLC analysis, a Prontosil 120-5-C18 ace EPS 5 µm column was applied, and MeCN/H2O + 0.1 % glacial acetic acid was used as eluent. Chromatography was run from 7030 to 9010 within 3 […]\nTable S1. Stability of compound 2 in medium.\nSample Detected Compounds (in µM)"}, "[4]": {"system": "retinoid-responsive elements (RARE)", "test": "RA reporter assay, F9 RARE-lacZ reporter cells", "format": "cell-based", "details": "0.3-5.0 µM, 20 h", "text": "More typical of retinoic acid is its contribution to cell differentiation during vertebrate embryonic development by interacting with nuclear receptors, which bind to specific retinoid-responsive elements (RARE) within the promoters of subordinate genes, activating their transcription. To verify that retinoate 2 also binds to RARE, we used a reporter assay with F9 teratocarcinoma cells featuring a RARE located within the cis-acting regulatory sequences of the human retinoic acid receptor alpha gene and immediately upstream of the E. coli lacZ genes, which thus acquire retinoid responsivity. LacZ expression in cells treated with various concentrations of 2 was then quantitated by densitometric analysis of β-galactosidase activity visualized by X-Gal staining.\nThe F9 embryonal carcinoma cell line, stably transfected with the 1.8 kb promoter sequence of RARb2 coupled to the lacZ gene, was used to measure active retinoids. The assay is appropriate for detection of all-trans RA but is able to detect other retinoid isomers as well. The F9 reporter cells were maintained in 10% FCS containing DMEM in the presence of 400 ug/mL G418. A day before the assay, F9 cell were seeded onto 24-well plates (100,000 cell/well). The cells were than treated with various concentrations of 2. […]"}, "NE-4C neural stem cells": {"system": "NE-4C neural stem cells", "test": "Neuronal differentiation of NE-4C neural stem cells (β-tubulin III staining)", "format": "cell-based, mouse", "protocol": "NE-4C cells and their differentiated progeny neurons can be immunohistochemically distinguished by the presence of β-tubulin III only in the latter (Figure 3).\n(§1) Astroglia cells grown on poly-L-lysine-coated glass cover slips were fixed with 4% paraformaldehyde in PBS for 20 min at room temperature and then permeabilized with Triton X-100 (0.1% v/v in PBS; 5 min). Nonspecific antibodies were blocked by incubation with 3% FBS in PBS (room temperature, 1 h). α-GFAP antibody (rabbit, DAKO) was used in a dilution of 1:2000 and was visualized by anti-rabbit IgG Alexa 594 (1:1000). DAPI (4′,6-diamidino-2-phenylindole) was used for nuclei staining. Fluorescence images were captured manually on a Zeiss Axiovert 200 M microscope fitted with 20- to 60-fold zoom and a Zeiss AxioCam MRm digital camera. Further applied antibodies were tubulin III (Sigma T5076), used at a dilution of 1:1000, and Annexin V. Cy3.18 (Sigma A4963)."}, "U87 glioma cells": {"system": "U87 glioma cells", "test": "Apoptosis of U87 glioma cells (calcein/Annexin V-Cy3)", "format": "cell-based, human", "details": "between 1 and 10 µM, 48 h", "protocol": "as §1\nFigure 6 U87 glioma cells undergo apoptosis upon 48 h treatment with 10 µM of 2. Cells in the early stages of apoptosis show calcein (green)/Annexin V-Cy3 (red) double labeling. Scale bars: 50 µm; 20 µm for inserts."}},
  "data": [
    {"smiles": "CC1=C(/C=C/C(C)=C/C=C/C(C)=C/C(=O)O[C@@H]2C3=C(C)C4(CC4)[C@@](C)(O)C(=O)C3=CC2(C)C)C(C)(C)CCC1", "note": "[Compound 2, illudin M retinoate]", "values": [
      {"measurement": "fold less efficacious than 1", "setting": "[1]", "result": 100, "unit": "fold"},
      {"measurement": "fading of the enone band in the presence of glutathione", "setting": "[2]", "result": "stabilization of conjugate 2 compared with 1"},
      {"measurement": "stability in cell medium", "setting": "[3]; cell medium", "result": "high stability"},
      {"measurement": "Detected compound 2 in medium", "setting": "[3]; 0 h", "result": 3.92, "unit": "µM"},
      {"measurement": "Detected free 1 in the sample of 2", "setting": "[3]; 0 h", "result": "< 0.01", "unit": "µM"},
      {"measurement": "Detected free retinoic acid in the sample of 2", "setting": "[3]; 0 h", "result": "< 0.01", "unit": "µM"},
      {"measurement": "Detected compound 2 in medium", "setting": "[3]; 20 h", "result": 3.98, "unit": "µM"},
      {"measurement": "Detected free 1 in the sample of 2", "setting": "[3]; 20 h", "result": "< 0.01", "unit": "µM"},
      {"measurement": "Detected free retinoic acid in the sample of 2", "setting": "[3]; 20 h", "result": "< 0.01", "unit": "µM"},
      {"measurement": "Detected compound 2 in medium", "setting": "[3]; 48 h", "result": 3.85, "unit": "µM"},
      {"measurement": "Detected free 1 in the sample of 2", "setting": "[3]; 48 h", "result": "< 0.01", "unit": "µM"},
      {"measurement": "Detected free retinoic acid in the sample of 2", "setting": "[3]; 48 h", "result": "< 0.01", "unit": "µM"},
      {"measurement": "Detected compound 2 in medium", "setting": "[3]; 144 h", "result": 3.94, "unit": "µM"},
      {"measurement": "Detected free 1 in the sample of 2", "setting": "[3]; 144 h", "result": "< 0.01", "unit": "µM"},
      {"measurement": "Detected free retinoic acid in the sample of 2", "setting": "[3]; 144 h", "result": "< 0.01", "unit": "µM"},
      {"measurement": "activation of F9 RARE-lacZ reporter cells (β-galactosidase, X-Gal staining)", "setting": "[4]", "result": "concentration-dependent activation"},
      {"measurement": "differentiation of NE-4C stem cells to neurons", "setting": "NE-4C neural stem cells; 10 nM, β-tubulin III staining", "result": "did not elicit differentiation"},
      {"measurement": "neuronal differentiation of NE-4C neural stem cells", "setting": "NE-4C neural stem cells; concentrations as high as 1 µM", "result": "did not induce neuronal differentiation"},
      {"measurement": "apoptosis of U87 glioma cells", "setting": "U87 glioma cells", "result": "undergoing rapid apoptosis"}
    ]}
  ]
}
